Test results as given in ChEMBL document CHEMBL4422618, “Translational impact of novel widely pharmacological characterized mofezolac-derived COX-1 inhibitors combined with bortezomib on human multiple myeloma cell lines viability” (Eur J Med Chem, 2019).
Active and inactive are the calls of the source. No cut-off for these calls is given here.

Experiments:
NCI-H929 [1] = experiment: Induction of apoptosis in human NCI-H929 cells assessed as late apoptotic cells at 42 nM after 48 hrs by Annexin-V/propidium iodide staining based flow cytometric method (reference value: 0.23%); format: functional
RPMI-8226 [2] = experiment: Cell cycle arrest in human RPMI8226 cells assessed as reduction in accumulation at G2/M phase at 42 nM in presence of bortezomib after 48 hrs by propidium iodide/RNase staining based flow cytometric method relative to bortezomib; format: functional
RPMI-8226 [3] = experiment: Cell cycle arrest in human RPMI8226 cells assessed as accumulation at S phase at 42 nM after 48 hrs by propidium iodide/RNase staining based flow cytometric method; format: functional
Plasma [4] = experiment: Anticoagulant activity in human platelet poor plasma assessed as prothrombin time at 100 uM incubated for 15 mins at room temperature and subsequent incubation for 2 mins at 37 degreeC followed by PBS addition and measured after 3 mins for every secs in presence of calcium thromboplastin; format: functional
RPMI-8226 [5] = experiment: Cell cycle arrest in human RPMI8226 cells assessed as accumulation at G0/G1 phase at 42 nM in presence of bortezomib after 48 hrs by propidium iodide/RNase staining based flow cytometric method relative to bortezomib; format: functional
NCI-H929 [6] = experiment: Induction of apoptosis in human NCI-H929 cells assessed as early apoptotic cells at 42 nM after 48 hrs in presence of bortezomib by Annexin-V/propidium iodide staining based flow cytometric method (reference value: 17.1%); format: functional
NCI-H929 [7] = experiment: Induction of apoptosis in human NCI-H929 cells assessed as necrotic cells at 42 nM after 48 hrs in presence of bortezomib by Annexin-V/propidium iodide staining based flow cytometric method (reference value: 0.0034%); format: functional
RPMI-8226 [8] = experiment: Induction of apoptosis in human RPMI8226 cells assessed as viable cells at 42 nM after 48 hrs in presence of bortezomib by Annexin-V/propidium iodide staining based flow cytometric method (reference value: 98.7%); format: functional; details: RPMI-8226, 48 h, read-out: Activity
NCI-H929 [9] = experiment: Cytotoxicity against human NCI-H929 cells assessed as reduction in cell viability at 42 nM after 48 hrs by CCK8 assay; format: functional, cell-based
Plasma [10] = experiment: Anticoagulant activity in human platelet poor plasma assessed as activated partial thromboplastin time at 100 uM incubated for 15 mins at room temperature and subsequent incubation for 2 mins at 37 degreeC followed by cephalin addition and measured after 2 mins for every secs in presence of CaCl2; format: functional

C=Cc1onc(-c2ccc(OC)cc2)c1-c1ccc(OC)cc1
Activity (NCI-H929 [1]): 0.11%
Activity (RPMI-8226 [2]): Active
Activity (RPMI-8226 [3]): inactive
PT (Plasma [4]): 13.7 s
Activity (RPMI-8226 [5]): Active
Activity (NCI-H929 [6]): 60.6%
Activity (NCI-H929 [7]): 0%
viability at 0.042 µM (RPMI-8226 [8]): 89.9%
Activity (NCI-H929 [9]): inactive
APTT (Plasma [10]): 51.2 s
